Several values for one entry are separate records, joined by “and”; a condition that tells them apart may be missing. Identical values can stand only once.

This is an account of results in patent US10821126B2, “Agent for treating retinopathy” (CARNA HEALTH SUPPORT LTD., priority 2016, dated 2020).

The target of series [1] is T1, SGLT2 (Homo sapiens, UniProt P31639).
T1 sequence (P31639 1-672): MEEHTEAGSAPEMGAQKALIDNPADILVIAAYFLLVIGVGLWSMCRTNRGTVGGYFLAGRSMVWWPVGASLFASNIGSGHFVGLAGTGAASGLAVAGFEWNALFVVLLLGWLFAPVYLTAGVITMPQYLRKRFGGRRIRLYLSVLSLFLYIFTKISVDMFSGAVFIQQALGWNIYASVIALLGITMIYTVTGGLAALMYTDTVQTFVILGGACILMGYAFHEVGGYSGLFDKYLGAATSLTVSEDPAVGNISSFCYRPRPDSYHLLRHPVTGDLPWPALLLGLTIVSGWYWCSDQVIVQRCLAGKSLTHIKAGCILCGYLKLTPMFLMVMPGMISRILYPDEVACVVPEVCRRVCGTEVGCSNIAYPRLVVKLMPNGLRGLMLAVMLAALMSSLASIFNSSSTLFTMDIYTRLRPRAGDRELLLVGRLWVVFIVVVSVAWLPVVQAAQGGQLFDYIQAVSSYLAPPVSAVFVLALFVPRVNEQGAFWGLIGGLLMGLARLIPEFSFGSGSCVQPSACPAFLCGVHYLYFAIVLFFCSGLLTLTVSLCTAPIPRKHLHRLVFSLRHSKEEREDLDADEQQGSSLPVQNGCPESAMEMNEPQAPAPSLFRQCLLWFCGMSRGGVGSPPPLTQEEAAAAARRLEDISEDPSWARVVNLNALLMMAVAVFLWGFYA
Particulars: cited from earlier work.

For series [2] the following is noted: authorized minimum dosage amount; cited from earlier work.
For series [3], the system named is increase of retinal vascular permeability in db/db mouse. Description: Retinal vascular permeability (retinal albumin amount by western blot) in spontaneous type 2 diabetes model db/db mouse. The format is in vivo. The following applies: oral. The procedure: Subsequently, the amelioration effect on diabetic retinal function (amelioration effect on permeability increase which is a representative abnormality of diabetic retinal vessels) by the therapeutic agent of the present invention (existing SGLT2 inhibitor agent) was confirmed by using spontaneous type 2 diabetes model db/db mouse.
Since 8 weeks after birth of spontaneous type 2 diabetes model db/db mouse, a dosage amount (10 mg/kg/day as luseogliflozin) of luseogliflozin hydrate which is an existing SGLT2 inhibitor agent, with which an antihyperglycemic action is confirmed in mouse was orally administered. Two weeks after administration of SGLT2 inhibitor agent, the mouse was euthanized, and all blood vessels were sufficiently refluxed with 10 ml of phosphate buffer solution (PBS), and the eyeballs were extracted. After isolating retina, the albumin amount in the retinal tissues leaked from the blood vessels was measured by western blott method, to assess the vascular permeability increase. The albumin amount in retina was corrected with […], and is shown by % control by using control db/+ mouse as a standard.
Next, similarly as for luseogliflozin, the function improvement on increase of retinal vascular permeability was assessed using canagliflozin. Canagliflozin hydrate which is an existing SGLT2 inhibitor agent was orally administered for 2 weeks, at a dosage amount (3 mg/kg/day as canagliflozin) with which an antihyperglycemic action is confirmed in mouse, and at a low dosage (0.01 mg/kg/day as canagliflozin) not showing an antihyperglycemic action.

Series [4] deals with diabetic retinopathy having macular edema. The series can be described thus: Cases of diabetic retinopathy having macular edema, assessed by optical coherence tomography (OCT), HbA1c and vision. Format: in vivo, human. The procedure: To four cases of diabetic retinopathy having macular edema to which conventional intraocular injection of steroid or anti-VEGF antibody was not effective, the therapeutic agent of the present invention (existing SGLT2 inhibitor) was administered at a normal dosage amount or at a lower dosage amount, and the effect was confirmed. Specifically, for the three cases using dapagliflozin and one case using canagliflozin, the effect was confirmed by assessment using optical coherence tomography (OCT). Person; suffering from type 2 diabetes, accompanied with proliferative retinopathy in both eyes, and macular edema in both eyes. Steroid sub-tenon injection was frequently performed but was treatment-resistant. […], person; suffering from type 2 diabetes, accompanied with proliferative retinopathy in both eyes, and macular edema in both eyes. Steroid sub-tenon injection was performed but was treatment-resistant. […], person; suffering from type 2 diabetes, accompanied with simple diabetic retinopathy in both eyes, and macular edema in right eye. […], person; suffering from type 2 diabetes, accompanied with preproliferative diabetic retinopathy in both eyes, and macular edema in right eye. Steroid intraocular injection was performed to right eye macular edema, but was resistant.

Series [5] concerns spontaneous type 2 diabetes model db/db mouse. The series can be described thus: Effects on body weight, feed intake, urine volume and blood sugar in db/db mouse. Format: in vivo. Particulars: oral, 2 weeks. The procedure:
The above-mentioned low dosage (0.01 mg/kg/day as canagliflozin) not showing an antihyperglycemic action was confirmed by the following method.
[…] Effects on body weight, feed intake, urine volume and blood sugar were confirmed.
FIGS. 6 and 7 show the results of fructosamine level which is an index for fasting blood sugar and average blood sugar levels when administering 3 mg/kg/day and 0.01 mg/kg/day of canagliflozin hydrate.

For `CCc1ccc(Cc2ccc3c(c2)[C@]2(OC3)O[C@H](CO)[C@@H](O)[C@H](O)[C@H]2O)cc1` [tofogliflozin hydrate], the “IC50 level showing the inhibition activity, compared with canagliflozin” value in series [1] is recorded as “similar”. The “maximum blood concentration (Cmax) in the minimum dosage amount, relative to that of canagliflozin” value in series [2] is given as “approximately 1/10”.

For `Cc1ccc([C@@H]2O[C@H](CO)[C@@H](O)[C@H](O)[C@H]2O)cc1Cc1ccc(-c2ccc(F)cc2)s1` [canagliflozin hydrate], the “increase of retinal albumin amount (retinal vascular permeability)” value in series [3] (0.01 mg/kg/day as canagliflozin, 2 weeks) is given as “significantly ameliorated to the control group level”; in series [3] (3 mg/kg/day as canagliflozin, 2 weeks), “significantly ameliorated to the control group level”. The blood sugar control entry in series [4] (Case 2, 100 mg/day as canagliflozin) is listed as “no change in blood sugar control”. Also, the HbA1 after administration in series [4] (Case 2, 100 mg/day as canagliflozin, 8.0 before administration, hydrate) is 8.4 and 8.1 and 7.8. Also, the OCT findings entry in series [4] (Case 2, 100 mg/day as canagliflozin, about 5 months after initiation of administration) was “decrease of macular retinal thickness, cyst reduction, and significant amelioration of laminar structure”. For the same compound, in series [4] (Case 2, 100 mg/day as canagliflozin, from 0.4), the “vision, right eye, after administration” value is 0.5. The “vision, left eye, after administration” value in series [4] (Case 2, 100 mg/day as canagliflozin, from 0.7) is given as 1.2. The blood sugar result is “no significant decrease” in series [5] (0.001 mg/kg/day); “no significant blood sugar decrease” in series [5] (0.01 mg/kg/day, hydrate); “no significant decrease” in series [5] (0.1 mg/kg/day). Also, the “fructosamine level which is an index for fasting blood sugar and average blood sugar levels” value in series [5] (3 mg/kg/day, vs non-administered group (FIGS. 6 and 7)) was “significantly decreased”.

Regarding `OC[C@H]1O[C@@H](c2ccc(F)c(Cc3cc4ccccc4s3)c2)[C@H](O)[C@@H](O)[C@@H]1O` [ipragliflozin L-proline], in series [1], the “IC50 level showing the inhibition activity, compared with canagliflozin” value is “similar”.

Take `OC[C@H]1O[C@@H](c2ccc(Cl)c(Cc3ccc(O[C@H]4CCOC4)cc3)c2)[C@H](O)[C@@H](O)[C@@H]1O` [empagliflozin]: the “IC50 level showing the inhibition activity, compared with canagliflozin” value in series [1] is on record as “similar”. For the same compound, the “maximum blood concentration (Cmax) in the minimum dosage amount, relative to that of canagliflozin” value in series [2] is reported as “approximately 1/10”.

`CCOc1ccc(Cc2cc([C@@H]3O[C@H](CO)[C@@H](O)[C@H](O)[C@H]3O)ccc2Cl)cc1` [dapagliflozin propylene glycol hydrate] displayed a HbA1 after administration in series [4] (Case 1, 2.5 mg/day as dapagliflozin, 6.7 before administration) of 6.6. Besides, the “vision, left eye, after administration” value in series [4] (Case 1, 2.5 mg/day as dapagliflozin, did not change) was found to be 1.2. Moreover, the “vision, right eye, after administration” value in series [4] (Case 1, 2.5 mg/day as dapagliflozin, from 0.7) is recorded as 0.8. The compound further returned a vision after administration in series [4] (Case 3, 2.5 mg/day as dapagliflozin, from 0.15) of 0.2. The HbA1c after administration in series [4] (Case 3, 2.5 mg/day as dapagliflozin, from 8.7) was determined as 8.0; in series [4] (Case 4, 2.5 mg/day as dapagliflozin, from 5.9, no change), 6.1%. The compound further yielded a vision in series [4] (Case 4, 2.5 mg/day as dapagliflozin, did not change due to severe retinopathy) of 0.1.

`CCOc1ccc(Cc2cc([C@@H]3S[C@H](CO)[C@@H](O)[C@H](O)[C@H]3O)c(OC)cc2C)cc1` [luseogliflozin hydrate]: the “IC50 level showing the inhibition activity, compared with canagliflozin” value in series [1] was “similar”. The “increase of retinal albumin amount (retinal vascular permeability)” value in series [3] (10 mg/kg/day as luseogliflozin, two weeks) is reported as “significantly ameliorated to the control group level”. Further, the “maximum blood concentration (Cmax) in the minimum dosage amount, relative to that of canagliflozin” value in series [2] is “approximately 1/10”.
